Measurements reported in ChEMBL document CHEMBL4840322, “Synthesis and biological evaluation of novel coumarin derivatives in rhabdoviral clearance” (Eur J Med Chem, 2021).
Calls of active or inactive are those of the source. The rule behind the calls is not given here.

Legend:
[1] = system: Infectious hematopoietic necrosis virus; assay: Inhibition of Infectious hematopoietic necrosis virus glycoprotein G assessed as antiviral activity at 25 uM measured by RT-qPCR method relative to control
[2] = system: Infectious hematopoietic necrosis virus; assay: Antiviral activity against Infectious hematopoietic necrosis virus infected in Fathead minnow EPC cells assessed as inhibition of phospho protein gene expression at 0.1 to 100 uM measured after 72 hrs by RT-qPCR method relative to control; assay type: functional; design: scale not given: the % may be the effect or the level left; conditions: dose 0.1-100 µM
[3] = Induction of apoptosis in Fathead minnow EPC cells assessed as necrotic cells measured after 72 hrs by Annexin V/PI staining based flowcytometry method (reference value: 0.29%); assay type: functional, Pimephales promelas
[4] = Induction of apoptosis in Fathead minnow EPC cells assessed as late apoptotic cells measured after 72 hrs by Annexin V/PI staining based flowcytometry method (reference value: 1.95%); assay type: functional, Pimephales promelas
[5] = system: Infectious hematopoietic necrosis virus; assay: Antiviral activity against Infectious hematopoietic necrosis virus infected in Fathead minnow EPC cells assessed as inhibition of virus-cell recognition at 25 uM measured after 30 mins by RT-qPCR method; assay type: functional, organism-based
[6] = system: Micropterus salmoides rhabdovirus; assay: Antiviral activity against micropterus salmoides rhabdo-virus infected in Grass carp GCO cells assessed as reduction of viral titre value measured after 48 to 96 hrs; assay type: functional, organism-based; conditions: time 48-96 hrs
[7] = system: Micropterus salmoides rhabdovirus; assay: Antiviral activity against micropterus salmoides rhabdo-virus infected in Fat head minnow EPC cells assessed as inhibition of N protein gene expression by RT-qPCR method relative to control; assay type: functional, organism-based
[8] = system: Infectious hematopoietic necrosis virus; assay: Antiviral activity against Infectious hematopoietic necrosis virus infected in Fathead minnow EPC cells assessed as suppression of virus-induced cytopathic effect at 100 uM; assay type: functional, organism-based
[9] = system: Sprivivirus cyprinus; assay: Antiviral activity against spring viremia of carp virus infected in Fat head minnow EPC cells assessed as inhibition of N protein gene expression at 0.1 to 100 uM by RT-qPCR method relative to control; assay type: functional; design: scale not given: the % may be the effect or the level left; conditions: dose 0.1-100 µM
[10] = system: Sprivivirus cyprinus; assay: Antiviral activity against spring viremia of carp virus infected in Fathead minnow EPC cells assessed as reduction of viral titre value measured after 48 to 96 hrs; assay type: functional, organism-based; conditions: time 48-96 hrs
[11] = system: Infectious hematopoietic necrosis virus; assay: Antiviral activity against Infectious hematopoietic necrosis virus infected in Rainbow trout fish assessed as decrease of viral proliferation in fish spleen ip measured after 4 days; assay type: functional, organism-based; conditions: time 4.0 day
[12] = system: Infectious hematopoietic necrosis virus; assay: Antiviral activity against Infectious hematopoietic necrosis virus infected in Fathead minnow EPC cells assessed as inhibition of matrix protein gene expression at 0.1 to 100 uM measured after 72 hrs by RT-qPCR method relative to control; assay type: functional; design: scale not given: the % may be the effect or the level left; conditions: dose 0.1-100 µM
[13] = system: Infectious hematopoietic necrosis virus; assay: Antiviral activity against Infectious hematopoietic necrosis virus infected in Fathead minnow EPC cells assessed as decrease in virus-induced apoptosis by measuring caspase-8 activity at 25 uM measured after 72 hrs by Caspase activity assay relative to control; assay type: functional; design: scale not given: the % may be the effect or the level left
[14] = Induction of apoptosis in Fathead minnow EPC cells assessed as early apoptotic cells measured after 72 hrs by Annexin V/PI staining based flowcytometry method (reference value: 3.8%); assay type: functional, Pimephales promelas
[15] = system: Infectious hematopoietic necrosis virus; assay: Antiviral activity against Infectious hematopoietic necrosis virus infected in Fathead minnow EPC cells assessed as inhibition of G protein expression measured after 72 hrs by RT-qPCR method; assay type: functional, organism-based
[16] = system: Infectious hematopoietic necrosis virus; assay: Antiviral activity against Infectious hematopoietic necrosis virus infected in Fathead minnow EPC cells assessed as inhibition of nucleoprotein gene expression at 0.1 to 100 uM measured after 72 hrs by RT-qPCR method relative to control; assay type: functional; design: scale not given: the % may be the effect or the level left; conditions: dose 0.1-100 µM
[17] = Cytotoxicity against Fathead minnow EPC cells at 25 uM; assay type: cell-based; conditions: pimephales promelas
[18] = system: Infectious hematopoietic necrosis virus; assay: Antiviral activity against Infectious hematopoietic necrosis virus infected in Fathead minnow EPC cells assessed as decrease in virus-induced apoptosis by measuring early apoptotic cells measured after 72 hrs by Annexin V/PI staining based flowcytometry method (reference value: 3.8%); assay type: functional; design: scale not given: the % may be the effect or the level left
[19] = system: Infectious hematopoietic necrosis virus; assay: Antiviral activity against Infectious hematopoietic necrosis virus infected in Fathead minnow EPC cells assessed as decrease in virus-induced apoptosis by measuring caspase-9 activity at 25 uM measured after 72 hrs by Caspase activity assay relative to control; assay type: functional; design: scale not given: the % may be the effect or the level left
[20] = system: Infectious hematopoietic necrosis virus; assay: Antiviral activity against Infectious hematopoietic necrosis virus infected in Fathead minnow EPC cells assessed as decrease in virus-induced apoptosis by measuring late apoptotic cells measured after 72 hrs by Annexin V/PI staining based flowcytometry method (reference value: 1.95%); assay type: functional; design: scale not given: the % may be the effect or the level left
[21] = system: Infectious hematopoietic necrosis virus; assay: Antiviral activity against Infectious hematopoietic necrosis virus infected in Rainbow trout fish assessed as decrease of mortality rate ip measured after 4 days; assay type: functional, organism-based; conditions: time 4.0 day
[22] = system: Micropterus salmoides rhabdovirus; assay: Antiviral activity against micropterus salmoides rhabd-ovirus infected in Fat head minnow EPC cells assessed as inhibition of N protein gene expression at 0.1 to 100 uM by RT-qPCR method relative to control; assay type: functional; design: scale not given: the % may be the effect or the level left; conditions: dose 0.1-100 µM
[23] = system: Infectious hematopoietic necrosis virus; assay: Antiviral activity against Infectious hematopoietic necrosis virus infected in Fathead minnow EPC cells assessed as reduction of virus titre values at 0.25 to 25 uM measured after 72 to 96 hrs; assay type: functional, organism-based; conditions: dose 0.25-25 µM, time 72-96 hrs
[24] = Induction of apoptosis in Fathead minnow EPC cells assessed as viable cells measured after 72 hrs by Annexin V/PI staining based flowcytometry method (reference value: 94%); assay type: functional, Pimephales promelas
[25] = system: Infectious hematopoietic necrosis virus; assay: Antiviral activity against Infectious hematopoietic necrosis virus infected in Fathead minnow EPC cells at 25 uM preincubated for 1 to 4 hrs followed by compound washout and infected to EPC cells and measured after 72 hrs by RT-qPCR assay; assay type: functional, organism-based; conditions: time 1-4 hrs
[26] = system: Infectious hematopoietic necrosis virus; assay: Antiviral activity against Infectious hematopoietic necrosis virus infected in Fathead minnow EPC cells assessed as decrease in virus-induced apoptosis by measuring changes in cell morphology at 10 uM measured by ultrastructural analysis; assay type: functional, organism-based
[27] = system: Infectious hematopoietic necrosis virus; assay: Antiviral activity against Infectious hematopoietic necrosis virus infected in Fathead minnow EPC cells assessed as decrease in virus-induced apoptosis by measuring formation of few apoptotic bodies in cells at 100 uM measured after 72 hrs by Flowcytometry assay; assay type: functional, organism-based
[28] = system: Infectious hematopoietic necrosis virus; assay: Antiviral activity against Infectious hematopoietic necrosis virus infected in Fathead minnow EPC cells assessed as decrease in virus-induced apoptosis by measuring appearance of normal sized nuclei in cells at 100 uM measured after 72 hrs by Flowcytometry assay; assay type: functional, organism-based
[29] = Cytotoxicity against Grass carp GCO cells at 25 uM; assay type: cell-based; conditions: ctenopharyngodon idellus
[30] = system: Infectious hematopoietic necrosis virus; assay: Antiviral activity against Infectious hematopoietic necrosis virus infected in Fathead minnow EPC cells assessed as inhibition of polymerase protein gene expression at 0.1 to 100 uM measured after 72 hrs by RT-qPCR method relative to control; assay type: functional; design: scale not given: the % may be the effect or the level left; conditions: dose 0.1-100 µM
[31] = system: Infectious hematopoietic necrosis virus; assay: Antiviral activity against Infectious hematopoietic necrosis virus infected in Fathead minnow EPC cells assessed as decrease in virus-induced apoptosis by measuring necrotic cells measured after 72 hrs by Annexin V/PI staining based flowcytometry method (reference value: 0.29%); assay type: functional; design: scale not given: the % may be the effect or the level left
[32] = system: Sprivivirus cyprinus; assay: Antiviral activity against spring viremia of carp virus infected in Fat head minnow EPC cells assessed as inhibition of N protein gene expression by RT-qPCR method relative to control; assay type: functional, organism-based
[33] = system: Infectious hematopoietic necrosis virus; assay: Antiviral activity against Infectious hematopoietic necrosis virus infected in Rainbow trout fish assessed as decrease of viral proliferation in fish brain ip measured after 4 days; assay type: functional, organism-based; conditions: time 4.0 day
[34] = system: Infectious hematopoietic necrosis virus; assay: Antiviral activity against Infectious hematopoietic necrosis virus infected in Rainbow trout fish assessed as decrease of viral proliferation in fish kidney ip measured after 4 days; assay type: functional, organism-based; conditions: time 4.0 day
[35] = system: Infectious hematopoietic necrosis virus; assay: Antiviral activity against Infectious hematopoietic necrosis virus infected in Fathead minnow EPC cells assessed as decrease in virus-induced apoptosis by measuring viable cells measured after 72 hrs by Annexin V/PI staining based flowcytometry method (reference value: 94%); assay type: functional
[36] = system: Infectious hematopoietic necrosis virus; assay: Antiviral activity against Infectious hematopoietic necrosis virus infected in Fathead minnow EPC cells assessed as decrease in virus-induced apoptosis by measuring caspase-3 activity at 25 uM measured after 72 hrs by Caspase activity assay relative to control; assay type: functional; design: scale not given: the % may be the effect or the level left

O=c1ccc2ccc(OCCCCCCn3cncn3)cc2o1
inhibition [1]: 39.2%

Nc1ccccc1SCCCCCCOc1ccc2ccc(=O)oc2c1
inhibition [1]: 49.3%

CCCCOc1cc(=O)oc2ccccc12
inhibition [1]: 14.5%

C=CCOc1cc(=O)oc2ccccc12
inhibition [1]: 2.46%

C=C(C)COc1ccc2c(C)cc(=O)oc2c1
inhibition [1]: 9.37%

Cc1cn(CCCCCCOc2ccc3c(C)cc(=O)oc3c2)cn1
inhibition [1]: 65.1%

CCCCOc1ccc2c(C)cc(=O)oc2c1
inhibition [1]: -4.37%

C=C(C)COc1cc(=O)oc2ccccc12
inhibition [1]: 9.47%

C=CCOc1ccc2ccc(=O)oc2c1
inhibition [1]: -5.86%

O=c1ccc2ccc(OCCCCCCn3cnc4ccccc43)cc2o1
Activity [2]: >95%
Activity [3]: 0.4%
Activity [4]: 2.2%
Activity [5]: inactive
Activity [6]: Active
IC50 [7]: 2120 nM
Activity [8]: Active
Activity [9]: 97.86%
Activity [10]: Active
Activity [11]: Active
Activity [12]: >95%
Activity [13]: 98%
Activity [14]: 2.35%
IC50 [15]: 2.96 µM
Activity [16]: >95%
Activity [17]: Non-Toxic
Activity [18]: 3.47%
Activity [19]: 50%
Activity [20]: 2.55%
Activity [21]: Active
Activity [22]: 99.08%
inhibition [1]: 99.2%
Activity [23]: Active
Activity [24]: 95.1%
Activity [25]: inactive
Activity [26]: Active
Activity [27]: Active
Activity [28]: Active
Activity [29]: Non-Toxic
Activity [30]: >95%
Activity [31]: 0.26%
IC50 [32]: 1680 nM
Activity [33]: Active
Activity [34]: Active
Activity [35]: 93.7%
Activity [36]: 383%

Cc1cc(=O)oc2cc(OCCCCCCn3cncn3)ccc12
inhibition [1]: 25.2%

COc1ccc2ccc(=O)oc2c1
inhibition [1]: 10.8%

O=c1ccc2ccc(OCCn3cnc4ccccc43)cc2o1
inhibition [1]: 5.58%

O=c1ccc2ccc(OCCCCCCSc3cccc(O)c3)cc2o1
inhibition [1]: 13.8%

CCCOc1ccc2ccc(=O)oc2c1
inhibition [1]: 5.73%

COc1ccc2c(C)cc(=O)oc2c1
inhibition [1]: 2.13%

O=c1ccc2ccc(OCCBr)cc2o1
inhibition [1]: 0.13%

O=c1ccc2ccc(OCCCCBr)cc2o1
inhibition [1]: 2.59%

O=c1ccc2ccc(OCCCCn3cnc4ccccc43)cc2o1
inhibition [1]: 35.1%

CCCOc1ccc2c(C)cc(=O)oc2c1
inhibition [1]: -1.75%

NC(=O)c1ncn([C@@H]2O[C@H](CO)[C@@H](O)[C@H]2O)n1
inhibition [1]: 99.1%

O=c1ccc2ccc(OCCCBr)cc2o1
inhibition [1]: -8.24%

COc1cc(=O)oc2ccccc12
inhibition [1]: 19.5%

O=c1ccc2ccc(OCCCCCCN3CCCCC3)cc2o1
inhibition [1]: 5.32%

C=C(C)COc1ccc2ccc(=O)oc2c1
inhibition [1]: 14%

Cc1cc(=O)oc2cc(OCCCCCCn3ccnc3)ccc12
IC50 [15]: 7.63 µM
inhibition [1]: 82.1%

Cc1cc(=O)oc2cc(OCCCCCCn3cnc4ccccc43)ccc12
IC50 [15]: 4.76 µM
inhibition [1]: 94.1%

Cc1cc(=O)oc2cc(OCCCCCCBr)ccc12
inhibition [1]: -2.34%

O=c1ccc2ccc(OCCCn3cnc4ccccc43)cc2o1
inhibition [1]: 27.2%

Cc1cc(=O)oc2cc(OCCCCCCn3ccnc3C)ccc12
IC50 [15]: 6.34 µM
inhibition [1]: 89.5%

O=c1ccc2ccc(OCCCCCCCCn3cnc4ccccc43)cc2o1
inhibition [1]: 46.1%

CCCCOc1ccc2ccc(=O)oc2c1
inhibition [1]: 22%

CCCOc1cc(=O)oc2ccccc12
inhibition [1]: 9.48%
